Values after ≈ are worked out from the molar mass of the structure shown. Non-standard residues stand in square brackets, D forms with d. Residues, ends and D or L forms follow the SMILES beside them. Gly(Nα-4-Cl-benzyl) = O=C(O)CNCc1ccc(Cl)cc1; N(4-F-Bzl)Gly = O=C(O)CNCc1ccc(F)cc1; NBzl(4-I)Gly = O=C(O)CNCc1ccc(I)cc1; Nphe = O=C(O)CNCc1ccccc1; Nlys = NCCCCNCC(=O)O
Assays:
[1] = system: S. aureus ATCC 29213; assay type: cell-based, Staphylococcus aureus; conditions: ATCC 29213, 18 h
Experimental: (§1) Bacterial growth inhibition was determined by using broth microdilution according to the Clinical Laboratory Standards Institute[43]. The antibacterial activity of peptoids was tested against S. aureus ATCC 25923, ATCC29213, and methicillin resistant S. aureus USA 300, methicillin resistant S. epidermidis ATCC 51625, a biofilm producing methicillin resistant S. epidermidis ET-024[44], P. aeruginosa Pa01 (H103), and E. coli ATCC 25922. Bacteria, grown on agar plates for 18 h at 37 °C, were diluted to ∼1 × 10^8 CFU/mL in Mueller‐Hinton Broth II (MHB II). Twofold serial dilutions of peptoids in MHB II were inoculated with bacteria to achieve a final concentration of 5 × 10^5 CFU/mL in polypropylene 96 U‐well microtiter plates (Corning 3,897; ThermoFisher Scientific, Roskilde), followed by incubation at 37 °C in ambient air for 18 h. The MIC values were determined as the lowest concentration showing no visible bacterial growth. Experiments were performed twice (in technical triplicates) on 2 different days.

[2] = system: S. aureus ATCC 25923; assay type: cell-based, Staphylococcus aureus; conditions: for Minimal inhibitory concentration SA^a: ATCC 25923, 18 h
Experimental: as §1

[3] = system: Methicillin-resistant S. aureus USA 300; assay type: cell-based, Staphylococcus aureus; conditions: USA 300, 18 h
Experimental: as §1

[4] = system: P. aeruginosa PA01 (H103); assay type: cell-based, Pseudomonas aeruginosa; conditions: H103, 18 h
Experimental: as §1

[5] = system: Methicillin-resistant S. epidermidis ATCC 51625; assay type: cell-based, Staphylococcus epidermidis; conditions: for Minimal inhibitory concentration MRSE^e: ATCC 51625, 18 h; for MIC against MRSE: text b15, strain not named
Experimental: as §1

[6] = system: Methicillin-resistant S. epidermidis ET-024; assay type: cell-based, Staphylococcus epidermidis; conditions: for Minimal inhibitory concentration MRSE^d: Methicillin-resistant ET-024, 18 h
Experimental: as §1

[7] = Critical aggregation concentration from SAXS fit analysis; assay type: physicochemical
Experimental: SAXS experiments of the 10-mer peptoids were performed at the automated BM29 bioSAXS beamline at the European Synchrotron Radiation Facility (ESRF) in Grenoble, France[45]. The data was obtained using an energy of 12.5 keV and a detector distance of 2.87 m, covering a q range ( q=4πsin(θ/2)/λ ), where θ is the scattering angle and λ is the X-ray wavelength) of about 0.0047 to 0.5 Å^−1. The data set was calibrated to an absolute intensity scale using water as a primary standard. 40 µL samples were run through a capillary using the flow mode of the automated sample changer. SAXS data was collected in ten successive frames of 0.5 s each to monitor radiation damage and the data reduction was done using the standard tool at BM29[47].
The SAXS experiments on the fully iodinated 6-, 8-, and 12-mers to determine the CAC of the compounds were performed using a Bruker NANOSTAR equipped with a microfocus X-ray source (IμS Cu, Incoatec, Germany) and a VÅNTEC-2000 detector. Raw scattering data was calibrated to absolute intensity scale using water as a primary standard and radially averaged in order to obtain the 1D scattered intensity profile as a function of the scattering vector, with a wavelength of 1.54 Å.
The modelling fit analysis of the scattering data is explained in detail in the supplementary information.

[8] = system: E. coli ATCC 25922; assay type: cell-based, Escherichia coli; conditions: ATCC 25922, 18 h
Experimental: as §1

[9] = system: selected bacterial strains (S. aureus, S. epidermidis, E. coli, P. aeruginosa); assay type: cell-based
Experimental: All 36 peptoids were tested against seven bacterial strains: five Gram-positive (Staphylococcus aureus ATCC 25923 and ATCC 29213, methicillin-resistant Staphylococcus aureus USA 300, methicillin-resistant Staphylococcus epidermidis ET-024 and ATCC 51625) and two Gram-negative (Escherichia coli ATCC 25922, Pseudomonas aeruginosa PA01) (Table 1).
as §1

Compound	Minimal inhibitory concentration SA^b [1]	Minimal inhibitory concentration SA^a [2]	Minimal inhibitory concentration MRSA^c [3]	Minimal inhibitory concentration PA^g [4]	Minimal inhibitory concentration MRSE^e [5]	Minimal inhibitory concentration MRSE^d [6]	critical aggregation concentration (CAC) [7]	Minimal inhibitory concentration EC^f [8]	antimicrobial potency against the selected bacterial strains, in words [9]	MIC against MRSE ([5]; values match ATCC 51625)	fold increase of activity against MRSE ([6]; versus non-halogenated control of same length, values match ET-024)	fold increase of activity against S. aureus ([2]; versus non-halogenated control of same length)	fold increase of activity against MRSE ([5]; versus non-halogenated control 1, values match ATCC 51625)
NCCCCNCC(=O)N(CC(=O)N(CCCCN)CC(=O)N(CC(=O)N(CCCCN)CC(=O)N(CC(=O)N(CCCCN)CC(=O)N(CC(=O)N(CCCCN)CC(=O)N(CC(N)=O)Cc1ccc(F)cc1)Cc1ccccc1)Cc1ccc(F)cc1)Cc1ccccc1)Cc1ccc(F)cc1 [Compound 24] (H-[Nlys][N(4-F-Bzl)Gly][Nlys][Nphe][Nlys][N(4-F-Bzl)Gly][Nlys][Nphe][Nlys][N(4-F-Bzl)Gly]-NH2)	512 µg/mL (≈ 354 µM)	512 µg/mL (≈ 354 µM)	256 µg/mL (≈ 177 µM)	512 µg/mL (≈ 354 µM)	8 µg/mL (≈ 5.53 µM)	4 µg/mL (≈ 2.76 µM)	> 5 mg/mL	256 µg/mL (≈ 177 µM)	–	–	–	–	–
NCCCCNCC(=O)N(CC(=O)N(CCCCN)CC(=O)N(CC(=O)N(CCCCN)CC(=O)N(CC(N)=O)Cc1ccccc1)Cc1ccccc1)Cc1ccccc1 [Compound 1] (H-[Nlys][Nphe][Nlys][Nphe][Nlys][Nphe]-NH2)	> 512 µg/mL	> 512 µg/mL	> 512 µg/mL	> 512 µg/mL	–	512 µg/mL (≈ 607 µM)	–	> 512 µg/mL	inactive	512 µg/mL (≈ 607 µM)	–	–	–
NCCCCNCC(=O)N(CC(=O)N(CCCCN)CC(=O)N(CC(=O)N(CCCCN)CC(=O)N(CC(=O)N(CCCCN)CC(=O)N(CC(N)=O)Cc1ccccc1)Cc1ccccc1)Cc1ccccc1)Cc1ccccc1 [Compound 10] (H-[Nlys][Nphe][Nlys][Nphe][Nlys][Nphe][Nlys][Nphe]-NH2)	> 512 µg/mL	> 512 µg/mL	> 512 µg/mL	> 512 µg/mL	256 µg/mL (≈ 229 µM)	256 µg/mL (≈ 229 µM)	–	256 µg/mL (≈ 229 µM)	inactive	–	–	–	–
NCCCCNCC(=O)N(CC(=O)N(CCCCN)CC(=O)N(CC(=O)N(CCCCN)CC(=O)N(CC(=O)N(CCCCN)CC(=O)N(CC(N)=O)Cc1ccc(I)cc1)Cc1ccc(I)cc1)Cc1ccc(I)cc1)Cc1ccc(I)cc1 [Compound 14] (H-[Nlys][NBzl(4-I)Gly][Nlys][NBzl(4-I)Gly][Nlys][NBzl(4-I)Gly][Nlys][NBzl(4-I)Gly]-NH2)	16 µg/mL (≈ 9.86 µM)	8 µg/mL (≈ 4.93 µM)	4 µg/mL (≈ 2.47 µM)	> 512 µg/mL	4 µg/mL (≈ 2.47 µM)	2 µg/mL (≈ 1.23 µM)	1.4 mg/mL	64 µg/mL (≈ 39.5 µM)	–	–	128 fold	–	–
NCCCCNCC(=O)N(CC(=O)N(CCCCN)CC(=O)N(CC(=O)N(CCCCN)CC(=O)N(CC(N)=O)Cc1ccc(I)cc1)Cc1ccc(I)cc1)Cc1ccc(I)cc1 [Compound 5] (H-[Nlys][NBzl(4-I)Gly][Nlys][NBzl(4-I)Gly][Nlys][NBzl(4-I)Gly]-NH2)	4 µg/mL (≈ 3.28 µM)	8 µg/mL (≈ 6.55 µM)	4 µg/mL (≈ 3.28 µM)	> 512 µg/mL	–	4 µg/mL (≈ 3.28 µM)	2.8 mg/mL	64 µg/mL (≈ 52.4 µM)	–	2 µg/mL (≈ 1.64 µM)	–	> 64 fold	256 fold
NCCCCNCC(=O)N(CC(=O)N(CCCCN)CC(=O)N(CC(=O)N(CCCCN)CC(=O)N(CC(=O)N(CCCCN)CC(=O)N(CC(=O)N(CCCCN)CC(=O)N(CC(N)=O)Cc1ccc(Cl)cc1)Cc1ccccc1)Cc1ccc(Cl)cc1)Cc1ccccc1)Cc1ccc(Cl)cc1 [Compound 25] (H-[Nlys][Gly(Nα-4-Cl-benzyl)][Nlys][Nphe][Nlys][Gly(Nα-4-Cl-benzyl)][Nlys][Nphe][Nlys][Gly(Nα-4-Cl-benzyl)]-NH2)	8 µg/mL (≈ 5.34 µM)	8 µg/mL (≈ 5.34 µM)	16 µg/mL (≈ 10.7 µM)	512 µg/mL (≈ 342 µM)	1 µg/mL (≈ 0.668 µM)	2 µg/mL (≈ 1.34 µM)	> 5 mg/mL	256 µg/mL (≈ 171 µM)	–	–	–	–	–
NCCCCNCC(=O)N(CC(=O)N(CCCCN)CC(=O)N(CC(=O)N(CCCCN)CC(=O)N(CC(=O)N(CCCCN)CC(=O)N(CC(=O)N(CCCCN)CC(=O)N(CC(N)=O)Cc1ccc(I)cc1)Cc1ccccc1)Cc1ccc(I)cc1)Cc1ccccc1)Cc1ccc(I)cc1 [Compound 27] (H-[Nlys][NBzl(4-I)Gly][Nlys][Nphe][Nlys][NBzl(4-I)Gly][Nlys][Nphe][Nlys][NBzl(4-I)Gly]-NH2)	4 µg/mL (≈ 2.26 µM)	4 µg/mL (≈ 2.26 µM)	4 µg/mL (≈ 2.26 µM)	> 512 µg/mL	1 µg/mL (≈ 0.565 µM)	2 µg/mL (≈ 1.13 µM)	> 5 mg/mL	128 µg/mL (≈ 72.3 µM)	–	–	–	–	–
NCCCCNCC(=O)N(CC(=O)N(CCCCN)CC(=O)N(CC(=O)N(CCCCN)CC(=O)N(CC(=O)N(CCCCN)CC(=O)N(CC(=O)N(CCCCN)CC(=O)N(CC(N)=O)Cc1ccc(Cl)cc1)Cc1ccc(Cl)cc1)Cc1ccc(Cl)cc1)Cc1ccc(Cl)cc1)Cc1ccc(Cl)cc1 [Compound 21] (H-[Nlys][Gly(Nα-4-Cl-benzyl)][Nlys][Gly(Nα-4-Cl-benzyl)][Nlys][Gly(Nα-4-Cl-benzyl)][Nlys][Gly(Nα-4-Cl-benzyl)][Nlys][Gly(Nα-4-Cl-benzyl)]-NH2)	2 µg/mL (≈ 1.28 µM)	2 µg/mL (≈ 1.28 µM)	2 µg/mL (≈ 1.28 µM)	> 512 µg/mL	2 µg/mL (≈ 1.28 µM)	1 µg/mL (≈ 0.639 µM)	> 5 mg/mL	64 µg/mL (≈ 40.9 µM)	–	–	–	–	–
NCCCCNCC(=O)N(CC(=O)N(CCCCN)CC(=O)N(CC(=O)N(CCCCN)CC(=O)N(CC(=O)N(CCCCN)CC(=O)N(CC(=O)N(CCCCN)CC(=O)N(CC(N)=O)Cc1ccc(F)cc1)Cc1ccc(F)cc1)Cc1ccc(F)cc1)Cc1ccc(F)cc1)Cc1ccc(F)cc1 [Compound 20] (H-[Nlys][N(4-F-Bzl)Gly][Nlys][N(4-F-Bzl)Gly][Nlys][N(4-F-Bzl)Gly][Nlys][N(4-F-Bzl)Gly][Nlys][N(4-F-Bzl)Gly]-NH2)	64 µg/mL (≈ 43.1 µM)	64 µg/mL (≈ 43.1 µM)	32 µg/mL (≈ 21.6 µM)	256 µg/mL (≈ 173 µM)	8 µg/mL (≈ 5.39 µM)	4 µg/mL (≈ 2.7 µM)	> 5 mg/mL	128 µg/mL (≈ 86.3 µM)	–	–	–	–	–
